The structures appear in SMILES notation.

In one test the test system is MCF7 cells. In words: Inhibitory effects on MCF7 cell proliferation (CellTiter-Glo). Type of test: cell-based. The following applies: Homo sapiens, 144 h, 6 days incubation, read-out: IC50 (nM), inhibition of MCF7 cell proliferation. On the procedure: (§1) MCF7 cells (TCHu74, National Collection of Authenticated Cell Cultures) were cultured in an MEM (GE Healthcare, SH30024.01) complete medium containing 10% fetal bovine serum. On day 1 of the experiment, MCF7 cells were seeded into a 96-well plate at a density of 3,000 cells/well using MEM containing 2% fetal bovine serum, with each well containing 135 μL of cell suspension. The plate was incubated in a 37° C., 5% CO2 cell incubator overnight. The next day, different concentrations of test compounds prepared in media were added at 15 μL/well. The final concentrations of the compounds were 9 concentration points obtained by 4-fold serial dilution from 1000 nM. A blank control containing 0.5% DMSO was set up. The plate was incubated in a 37° C., 5% CO2 cell incubator for 6 days. On day 8, the 96-well cell culture plate was taken out, and CellTiter-Glo® Luminescent Cell Viability Assay (Promega, G7573) was added at 75 μL/well. After the plate was left at room temperature for 10 min, luminescence signal readings were taken on a multilabel microplate reader (PerkinElmer, VICTOR 3). The IC50 values for the inhibitory activity of the compounds were calculated from the concentrations of the compounds and the luminescence signal readings using Graphpad Prism software.
Background: In ATP-based viability assays light output follows the ATP content of the culture.

A further test concerns MCF7/ERα Y537S cells. In words: Inhibitory activity on proliferation of ERα mutant-expressing MCF7 cells. The format is cell-based. The following applies: Homo sapiens, 144 h, 6 days incubation, CellTiter-Glo, read-out: IC50 (nM), inhibition of proliferation of ERα mutant-expressing MCF7 cells. On the procedure: The objective of this experiment was to determine the inhibitory activity of the compounds of the present disclosure on the proliferation of ERα mutant-expressing MCF7 cells.
as §1, with “cells expressing the ERα Y537S mutant were constructed by lentiviral infection. MCF7/ERα Y537S cells” for “cells (TCHu74, National Collection of Authenticated Cell Cultures)”, “bovine serum and […] puromycin.” for “bovine serum.”, “experiment,” for “experiment, MCF7”, “135 µL” for “135 μL”, “75 µL/well.” for “75 μL/well.”

Take `O=C1CC[C@H](N2Cc3cc(N4CCN(CC5CCN(c6ccc([C@@H]7c8ccc(O)cc8CC[C@@H]7C7CCC7)cc6F)CC5)CC4)ccc3C2=O)C(=O)N1` [Example 18-1, (S)-3-(5-(4-((1-(4-((1R,2R)-2-Cyclobutyl-6-hydroxy-1,2,3,4-tetrahydronaphthalen-1-yl)-2-fluorophenyl)piperidin-4-yl)methyl)piperazin-1-yl)-1-oxoisoindolin-2-yl)piperidine-2,6-dione]: the IC50 in the test with MCF7 cells came out at 1.35 nM; in the test on MCF7/ERα Y537S cells it was 7.77 nM.

In the case of `O=C1CCC(N2Cc3cc(N4CCN(CC5CCN(c6ccc([C@@H]7c8ccc(O)cc8CC[C@@H]7C7CCOCC7)c(F)c6)CC5)CC4)ccc3C2=O)C(=O)N1` (mixture of isomers) [Example 12-1, 3-(5-(4-((1-(3-Fluoro-4-((1S,2R)-6-hydroxy-2-(tetrahydro-2H-pyran-4-yl)-1,2,3,4-tetrahydronaphthalen-1-yl)phenyl)piperidin-4-yl)methyl)piperazin-1-yl)-1-oxoisoindolin-2-yl)piperidine-2,6-dione], the IC50 in the test on MCF7 cells amounted to 0.45 nM; in the test on MCF7/ERα Y537S cells, 1.28 nM.

Turning to `O=C1CC[C@H](N2Cc3cc(N4CCN(CC5CCN(c6ccc([C@@H]7c8ccc(O)cc8OC[C@@H]7C7CCC7)cc6)CC5)CC4)ccc3C2=O)C(=O)N1` [Example 32, (S)-3-(5-(4-((1-(4-((3R,4R)-3-Cyclobutyl-7-hydroxychroman-4-yl)phenyl)piperidin-4-yl)methyl)piperazin-1-yl)-1-oxoisoindolin-2-yl)piperidine-2,6-dione], the results for the IC50 in the test on MCF7 cells and with MCF7/ERα Y537S cells were 8.34 nM and 28.8 nM, respectively.

For `O=C1CCC(N2Cc3cc(N4CCN(CC5CCN(c6ccc(C7c8ccc(O)cc8CC[C@@H]7C7CCOCC7)cc6)CC5)CC4)ccc3C2=O)C(=O)N1` (stereo partly drawn) [Example 7, 3-(5-(4-((1-(4-((1,2)-cis-6-Hydroxy-2-(tetrahydro-2H-pyran-4-yl)-1,2,3,4-tetrahydronaphthalen-1-yl)phenyl)piperidin-4-yl)methyl)piperazin-1-yl)-1-oxoisoindolin-2-yl)piperidine-2,6-dione], the IC50 amounted to 0.67 nM in the test on MCF7 cells and 3.31 nM in the test on MCF7/ERα Y537S cells.

Regarding `O=C1CCC(N2Cc3cc(N4CCN(CC5CCN(c6ccc([C@@H]7c8ccc(O)cc8CC[C@@H]7C7CCOCC7)cc6)CC5)CC4)ccc3C2=O)C(=O)N1` (mixture of isomers) [Example 8-1, 3-(5-(4-((1-(4-((1R,2R)-6-Hydroxy-2-(tetrahydro-2H-pyran-4-yl)-1,2,3,4-tetrahydronaphthalen-1-yl)phenyl)piperidin-4-yl)methyl)piperazin-1-yl)-1-oxoisoindolin-2-yl)piperidine-2,6-dione], the IC50 in the test with MCF7 cells is 0.46 nM; in the test with MCF7/ERα Y537S cells, 2.8 nM.

Regarding `CCC[C@H]1CCc2cc(O)ccc2[C@H]1c1ccc(N2CCC(CN3CCN(c4ccc5c(c4)CN([C@H]4CCC(=O)NC4=O)C5=O)CC3)CC2)cc1` [Example 29, (S)-3-(5-(4-((1-(4-((1R,2S)-6-Hydroxy-2-propyl-1,2,3,4-tetrahydronaphthalen-1-yl)phenyl)piperidin-4-yl)methyl)piperazin-1-yl)-1-oxoisoindolin-2-yl)piperidine-2,6-dione], the IC50 stood at 0.78 nM in the test on MCF7 cells and 3.62 nM in the test with MCF7/ERα Y537S cells.

For the molecule `CC(C)C[C@H]1CCc2cc(O)ccc2[C@H]1c1ccc(N2CCC(CN3CCN(c4ccc5c(c4)CN([C@@H]4CCC(=O)NC4=O)C5=O)CC3)CC2)cc1` [Example 42, (R)-3-(5-(4-((1-(4-((1R,2R)-6-Hydroxy-2-isobutyl-1,2,3,4-tetrahydronaphthalen-1-yl)phenyl)piperidin-4-yl)methyl)piperazin-1-yl)-1-oxoisoindolin-2-yl)piperidine-2,6-dione], the figures for the IC50 in the test with MCF7 cells and with MCF7/ERα Y537S cells were 0.88 nM and 3.09 nM, respectively.

Consider `O=C1CC[C@@H](N2Cc3cc(N4CCN(CC5CCN(c6ccc([C@@H]7c8ccc(O)cc8CC[C@@H]7C7CCOCC7)cc6F)CC5)CC4)ccc3C2=O)C(=O)N1` [Example 43, (R)-3-(5-(4-((1-(2-Fluoro-4-((1R,2R)-6-hydroxy-2-(tetrahydro-2H-pyran-4-yl)-1,2,3,4-tetrahydronaphthalen-1-yl)phenyl)piperidin-4-yl)methyl)piperazin-1-yl)-1-oxoisoindolin-2-yl)piperidine-2,6-dione], for which the IC50 amounted to 3.57 nM in the test with MCF7 cells and 36.3 nM in the test with MCF7/ERα Y537S cells.

For `O=C1CCC(N2Cc3nc(N4CCN(CC5CCN(c6ccc([C@@H]7c8ccc(O)cc8CCC78CCCC8)cc6)CC5)CC4)ccc3C2=O)C(=O)N1` (mixture of isomers) [Example 6, 3-(2-(4-((1-(4-((R)-6′-Hydroxy-3′,4′-dihydro-1′H-spiro[cyclopentane-1,2′-naphthalen]-1′-yl)phenyl)piperidin-4-yl)methyl)piperazin-1-yl)-5-oxo-5,7-dihydro-6H-pyrrolo[3,4-b]pyridin-6-yl)piperidine-2,6-dione], the IC50 with MCF7 cells turned out to be 0.75 nM; in the test on MCF7/ERα Y537S cells, 3.19 nM.

For the molecule `O=C1CCC(N2Cc3cc(N4CCN(CC5CCN(c6ccc(C7c8ccc(O)cc8CC[C@@H]7C7CCC(F)(F)CC7)cc6)CC5)CC4)ccc3C2=O)C(=O)N1` (stereo partly drawn) [Example 9, 3-(5-(4-((1-(4-((1,2)-cis-2-(4,4-Difluorocyclohexyl)-6-hydroxy-1,2,3,4-tetrahydronaphthalen-1-yl)phenyl)piperidin-4-yl)methyl)piperazin-1-yl)-1-oxoisoindolin-2-yl)piperidine-2,6-dione], the values for the IC50 in the test on MCF7 cells and with MCF7/ERα Y537S cells were 2.14 nM and 8.73 nM, respectively.

Consider `O=C1CCC(N2Cc3cc(N4CCN(CC5CCN(c6ccc([C@@H]7c8ccc(O)cc8CCC78CCC8)cc6)CC5)CC4)ccc3C2=O)C(=O)N1` (mixture of isomers) [Example 23-1, 3-(5-(4-((1-(4-((R)-6′-Hydroxy-3′,4′-dihydro-1′H-spiro[cyclobutane-1,2′-naphthalen]-1′-yl)phenyl)piperidin-4-yl)methyl)piperazin-1-yl)-1-oxoisoindolin-2-yl)piperidine-2,6-dione], for which the IC50 in the test on MCF7 cells is 2.39 nM; in the test with MCF7/ERα Y537S cells, 7.53 nM.

For the molecule `O=C1CCC(N2Cc3cc(N4CCN(CC5CCN(c6ccc([C@@H]7c8ccc(O)cc8CC[C@@H]7C7CCOCC7)cc6F)CC5)CC4)ccc3C2=O)C(=O)N1` (mixture of isomers) [Example 4-1, 3-(5-(4-((1-(2-Fluoro-4-((1R,2R)-6-hydroxy-2-(tetrahydro-2H-pyran-4-yl)-1,2,3,4-tetrahydronaphthalen-1-yl)phenyl)piperidin-4-yl)methyl)piperazin-1-yl)-1-oxoisoindolin-2-yl)piperidine-2,6-dione], the IC50 amounted to 0.92 nM in the test on MCF7 cells and 4.71 nM in the test with MCF7/ERα Y537S cells.

Take `O=C1CCC(N2Cc3cc(N4CCN(CC5CCN(c6ccc([C@@H]7c8ccc(O)cc8CC[C@@H]7C7CCCC7)cc6)CC5)CC4)ccc3C2=O)C(=O)N1` (mixture of isomers) [Example 14-1, 3-(5-(4-((1-(4-((1R,2R)-2-Cyclopentyl-6-hydroxy-1,2,3,4-tetrahydronaphthalen-1-yl)phenyl)piperidin-4-yl)methyl)piperazin-1-yl)-1-oxoisoindolin-2-yl)piperidine-2,6-dione]: the IC50 in the test on MCF7 cells was found to be 0.75 nM; in the test with MCF7/ERα Y537S cells, 2.45 nM.

On to `O=C1CCC(N2Cc3cc(N4CCN(CC5CCN(c6ccc([C@@H]7c8ccc(O)cc8CC[C@@H]7C7CCOCC7)cc6F)CC5)CC4)ccc3C2=O)C(=O)N1` (relative stereo) [Example 3, 3-(5-(4-((1-(2-Fluoro-4-((1,2)-cis-6-hydroxy-2-(tetrahydro-2H-pyran-4-yl)-1,2,3,4-tetrahydronaphthalen-1-yl)phenyl)piperidin-4-yl)methyl)piperazin-1-yl)-1-oxoisoindolin-2-yl)piperidine-2,6-dione], for which the IC50 in the test with MCF7 cells was 1.56 nM; in the test with MCF7/ERα Y537S cells, 5.79 nM.

In the case of `O=C1CC[C@H](N2Cc3cc(N4CCN(CC5CCN(c6ccc([C@@H]7c8ccc(O)cc8CC[C@@H]7C7CCCCC7)cc6F)CC5)CC4)ccc3C2=O)C(=O)N1` [Example 20, (S)-3-(5-(4-((1-(4-((1R,2R)-2-Cyclohexyl-6-hydroxy-1,2,3,4-tetrahydronaphthalen-1-yl)-2-fluorophenyl)piperidin-4-yl)methyl)piperazin-1-yl)-1-oxoisoindolin-2-yl)piperidine-2,6-dione], the IC50 with MCF7 cells came to 0.73 nM; in the test with MCF7/ERα Y537S cells it was 2.74 nM.

(Values after US20250099596A1, “TETRAHYDRONAPHTHALENE COMPOUND, AND PREPARATION METHOD THEREFOR AND USE THEREOF IN MEDICINE” (Jiangsu Hengrui Pharmaceuticals Co., Ltd., priority 2021, published 2025).)
